Laboratory results taken from ChEMBL document CHEMBL1201862, “PubChem BioAssay data set” (2004).
The source made the active and inactive calls.

How the values were obtained:
[1] = molecular target: Sphingosine 1-phosphate receptor 3 (Homo sapiens, UniProt Q99500); assay: Dose response cell-based high throughput screening assay for antagonists of the Sphingosine 1-Phosphate Receptor 3 (S1P3). [Related pubchem assays: 1429, 485 ]; type: functional
[2] = molecular target: 5-hydroxytryptamine receptor 1E (Homo sapiens, UniProt P28566); assay: Counterscreen assay for S1P3 antagonists: Dose response cell-based high throughput screening assay to identify antagonists of the 5-Hydroxytryptamine Receptor Subtype 1E (5HT1E). [Related pubchem assays: 1429, 485 ]; type: functional
Sequence of 5-hydroxytryptamine receptor 1E (P28566 whole entry): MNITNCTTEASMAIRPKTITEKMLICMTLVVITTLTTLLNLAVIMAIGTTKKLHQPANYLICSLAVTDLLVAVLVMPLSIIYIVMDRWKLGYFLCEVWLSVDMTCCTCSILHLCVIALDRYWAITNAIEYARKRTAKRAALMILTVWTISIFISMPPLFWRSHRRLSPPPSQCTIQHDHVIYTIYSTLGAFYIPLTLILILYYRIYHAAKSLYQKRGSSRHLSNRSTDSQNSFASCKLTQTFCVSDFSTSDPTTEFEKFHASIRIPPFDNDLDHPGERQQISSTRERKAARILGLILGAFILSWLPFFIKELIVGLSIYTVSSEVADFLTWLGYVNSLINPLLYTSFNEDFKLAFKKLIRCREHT

Leucine aminopeptidase = Leucine aminopeptidase (Plasmodium falciparum 3D7, UniProt Q8IL11); assay: P. falciparum M17LAP inhibitors, primary screen, biochemical, fluorogenic H-Leu-NHMec substrate, 1536-well (AID 1619); type: functional
Sequence of Leucine aminopeptidase (Q8IL11 whole entry): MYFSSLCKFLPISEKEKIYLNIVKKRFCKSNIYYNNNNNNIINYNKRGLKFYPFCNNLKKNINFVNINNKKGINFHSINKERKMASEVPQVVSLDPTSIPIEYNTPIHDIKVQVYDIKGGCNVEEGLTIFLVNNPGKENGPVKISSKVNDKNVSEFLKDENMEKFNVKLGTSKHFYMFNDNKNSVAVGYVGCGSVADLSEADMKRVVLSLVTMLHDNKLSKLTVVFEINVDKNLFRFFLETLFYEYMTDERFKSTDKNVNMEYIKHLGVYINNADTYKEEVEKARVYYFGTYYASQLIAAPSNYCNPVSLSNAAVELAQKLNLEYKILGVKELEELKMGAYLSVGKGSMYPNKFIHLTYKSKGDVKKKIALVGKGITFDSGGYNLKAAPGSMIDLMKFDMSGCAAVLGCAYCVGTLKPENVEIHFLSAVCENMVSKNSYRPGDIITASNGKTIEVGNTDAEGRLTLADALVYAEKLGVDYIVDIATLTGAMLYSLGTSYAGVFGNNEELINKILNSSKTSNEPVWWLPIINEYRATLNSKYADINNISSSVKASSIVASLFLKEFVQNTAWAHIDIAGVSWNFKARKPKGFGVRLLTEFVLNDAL

Aspartyl aminopeptidase = molecular target: T1, Aspartyl aminopeptidase (Plasmodium falciparum 3D7, UniProt Q8I2J3); assay: Counterscreen for inhibitors of M1 and M17 aminopeptidases: QFRET-based biochemical high throughput dose response assay for inhibitors of the Plasmodium falciparum M18 Aspartyl Aminopeptidase (PFM18AAP). [Related PubChem assays: 1619 (Screening assay (M17LAP inhibitors).), 1445 (Screening assay (M1AAP inhibitors).)]
T1 sequence (Q8I2J3 whole entry): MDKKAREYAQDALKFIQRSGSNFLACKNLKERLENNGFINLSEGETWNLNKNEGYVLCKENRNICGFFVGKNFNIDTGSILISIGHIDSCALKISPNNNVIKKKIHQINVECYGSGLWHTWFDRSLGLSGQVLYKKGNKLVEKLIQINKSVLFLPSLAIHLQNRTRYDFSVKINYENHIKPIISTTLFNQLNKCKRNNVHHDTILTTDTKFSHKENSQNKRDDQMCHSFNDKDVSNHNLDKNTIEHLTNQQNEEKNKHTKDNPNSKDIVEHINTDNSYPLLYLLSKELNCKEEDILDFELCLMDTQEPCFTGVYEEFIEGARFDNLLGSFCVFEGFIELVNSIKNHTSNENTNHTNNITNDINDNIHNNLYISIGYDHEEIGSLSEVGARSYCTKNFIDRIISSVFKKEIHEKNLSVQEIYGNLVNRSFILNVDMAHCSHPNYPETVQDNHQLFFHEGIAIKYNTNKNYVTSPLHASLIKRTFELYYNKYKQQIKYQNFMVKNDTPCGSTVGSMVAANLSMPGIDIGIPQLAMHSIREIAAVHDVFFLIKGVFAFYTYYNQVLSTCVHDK

Procathepsin L = Procathepsin L (Homo sapiens, UniProt P07711); assay: cathepsin L inhibitors, dose response, counter-screen for M1/M17 aminopeptidase inhibitor project, biochemical, QFRET, 1536-well (AID 2214)
Sequence of Procathepsin L (P07711 whole entry): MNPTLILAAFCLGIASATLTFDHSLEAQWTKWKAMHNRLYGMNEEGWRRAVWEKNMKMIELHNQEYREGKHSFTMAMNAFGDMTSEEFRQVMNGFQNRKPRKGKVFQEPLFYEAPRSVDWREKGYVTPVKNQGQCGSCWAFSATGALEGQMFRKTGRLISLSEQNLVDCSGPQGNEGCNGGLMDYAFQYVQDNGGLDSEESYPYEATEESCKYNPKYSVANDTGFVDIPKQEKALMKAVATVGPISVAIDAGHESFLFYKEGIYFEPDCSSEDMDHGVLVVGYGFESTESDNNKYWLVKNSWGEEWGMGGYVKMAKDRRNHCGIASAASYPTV

[3] = molecular target: Sphingosine 1-phosphate receptor 2 (Homo sapiens, UniProt O95136); assay: Dose Response Cell Based Assay for Agonists of the S1P2 Receptor of Purchased Analogues. [Related pubchem assays: 729, 843, 854, 736 ]; type: functional
Sequence of Sphingosine 1-phosphate receptor 2 (O95136 whole entry, the tested form may be a part): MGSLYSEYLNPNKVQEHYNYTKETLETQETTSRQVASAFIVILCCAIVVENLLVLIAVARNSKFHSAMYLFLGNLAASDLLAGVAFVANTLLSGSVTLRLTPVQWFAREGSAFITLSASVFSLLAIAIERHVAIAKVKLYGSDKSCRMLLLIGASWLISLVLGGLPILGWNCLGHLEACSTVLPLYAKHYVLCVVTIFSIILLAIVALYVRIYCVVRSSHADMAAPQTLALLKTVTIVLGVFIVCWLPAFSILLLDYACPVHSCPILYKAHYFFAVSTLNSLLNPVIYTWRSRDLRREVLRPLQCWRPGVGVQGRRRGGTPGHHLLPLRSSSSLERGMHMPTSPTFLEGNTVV

[4] = luciferase reporter signal reduction – luminescence, H4-C neuroglioblastoma cells, dose response (AID 2458); type: functional, cell-based;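 note: H4 neuroglioblastoma cells stably carrying a luciferase reporter gene fusion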
[5] = inhibitors of SNCA 5'UTR-driven translation, confirmation, luminescence, H4 neuroglioblastoma cells, dose confirmation (AID 2454); type: functional, cell-based;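 note: H4 neuroglioblastoma cells carrying an alpha-synuclein 5'UTR luciferase reporter; potency for inhibition of the luciferase signal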
[6] = NIH-3T3 fibroblast cytotoxicity, dose response, cytotoxicity control, cell-based, fluorescence, Alamar Blue, secondary assay (AID 2327); type: functional;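 note: NIH-3T3 mouse fibroblasts cultured with fluconazole at 8 µg/mL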
[7] = molecular target: Heat shock protein HSP 90-alpha (Homo sapiens, UniProt P07900); type: functional, organism-based
[8] = C. albicans growth with fluconazole, confirmation, fluorescence, retest (AID 2467); type: functional, cell-based
[9] = molecular target: ATP-dependent molecular chaperone HSP82 (Candida albicans (strain WO-1) (Yeast), UniProt C4YTQ8); assay: loss of DOC-induced GRE-beta-galactosidase reporter signal, dose response, Hsp90 inhibitor project, S. cerevisiae, luminescence (AID 2400); type: functional, cell-based;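 note: beta-galactosidase luminescence from glucocorticoid response element reporter as proxy for Hsp90 function; inhibitor potency where signal loss means Hsp90 inhibition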
Sequence of ATP-dependent molecular chaperone HSP82 (C4YTQ8 whole entry): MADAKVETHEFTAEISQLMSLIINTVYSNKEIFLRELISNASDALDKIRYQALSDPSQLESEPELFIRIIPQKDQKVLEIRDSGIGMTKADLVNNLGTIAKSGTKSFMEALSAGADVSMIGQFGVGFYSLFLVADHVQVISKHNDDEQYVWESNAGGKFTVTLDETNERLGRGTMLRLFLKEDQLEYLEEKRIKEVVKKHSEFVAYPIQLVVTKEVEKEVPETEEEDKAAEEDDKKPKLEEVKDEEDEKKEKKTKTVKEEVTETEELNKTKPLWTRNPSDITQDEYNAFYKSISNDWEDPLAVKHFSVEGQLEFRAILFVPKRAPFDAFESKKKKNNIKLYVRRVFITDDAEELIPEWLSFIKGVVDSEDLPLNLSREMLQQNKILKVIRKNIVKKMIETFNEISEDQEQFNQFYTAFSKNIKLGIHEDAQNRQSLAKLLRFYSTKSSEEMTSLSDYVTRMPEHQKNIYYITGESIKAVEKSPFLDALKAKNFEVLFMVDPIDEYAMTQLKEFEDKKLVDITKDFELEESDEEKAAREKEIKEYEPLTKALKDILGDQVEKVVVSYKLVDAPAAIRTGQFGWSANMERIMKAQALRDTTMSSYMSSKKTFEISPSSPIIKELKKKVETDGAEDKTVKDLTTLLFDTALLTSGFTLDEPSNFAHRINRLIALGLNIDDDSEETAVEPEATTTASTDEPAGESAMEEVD

[10] = molecular target: Serine/threonine-protein phosphatase (Candida dubliniensis (strain CD36 / CBS 7987 / NCPF 3949 / NRRLY-17841) (Yeast), UniProt B9W6M3); assay: calcineurin pathway inhibitors in yeast reporter, dose response, S. cerevisiae, CDRE-lacZ, luminescence, secondary (AID 2388); type: functional, cell-based;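 note: yeast reporter cells carrying a calcineurin-responsive lacZ construct stimulated with calcium chloride; luminescent beta-galactosidase reporter signal in whole cells rather than isolated phosphatase activity; potency for inhibition where a drop in reporter signal means calcineurin blockade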
Sequence of Serine/threonine-protein phosphatase (Candida dubliniensis (strain CD36 / CBS 7987 / NCPF 3949 / NRRLY-17841) (Yeast), UniProt B9W6M3) (B9W6M3 whole entry): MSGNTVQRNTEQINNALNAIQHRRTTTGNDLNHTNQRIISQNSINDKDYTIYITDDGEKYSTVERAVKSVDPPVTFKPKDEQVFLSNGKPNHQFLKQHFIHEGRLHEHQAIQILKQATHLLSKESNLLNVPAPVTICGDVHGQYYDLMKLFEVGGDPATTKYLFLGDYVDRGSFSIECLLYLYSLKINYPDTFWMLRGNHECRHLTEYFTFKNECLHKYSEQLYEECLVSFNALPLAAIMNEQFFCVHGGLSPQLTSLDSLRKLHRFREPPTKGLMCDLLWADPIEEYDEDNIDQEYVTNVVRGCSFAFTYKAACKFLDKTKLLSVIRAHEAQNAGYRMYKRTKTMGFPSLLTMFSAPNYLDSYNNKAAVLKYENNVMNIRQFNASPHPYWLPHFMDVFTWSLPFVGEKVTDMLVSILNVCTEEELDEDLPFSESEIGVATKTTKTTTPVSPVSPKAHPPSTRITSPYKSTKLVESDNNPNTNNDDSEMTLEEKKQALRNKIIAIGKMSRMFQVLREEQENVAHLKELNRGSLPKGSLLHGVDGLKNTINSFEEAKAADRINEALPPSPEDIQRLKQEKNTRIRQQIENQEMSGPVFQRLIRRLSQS

cells = type: functional, cell-based
[11] = inhibitors of SNCA 5'UTR-driven reporter translation, confirmation, H4 neuroglioma cells, luminescence (AID 1988); type: functional, cell-based
[12] = molecular target: T2, Alkaline phosphatase, tissue-nonspecific isozyme (Homo sapiens, UniProt P05186)
T2 sequence (P05186 whole entry): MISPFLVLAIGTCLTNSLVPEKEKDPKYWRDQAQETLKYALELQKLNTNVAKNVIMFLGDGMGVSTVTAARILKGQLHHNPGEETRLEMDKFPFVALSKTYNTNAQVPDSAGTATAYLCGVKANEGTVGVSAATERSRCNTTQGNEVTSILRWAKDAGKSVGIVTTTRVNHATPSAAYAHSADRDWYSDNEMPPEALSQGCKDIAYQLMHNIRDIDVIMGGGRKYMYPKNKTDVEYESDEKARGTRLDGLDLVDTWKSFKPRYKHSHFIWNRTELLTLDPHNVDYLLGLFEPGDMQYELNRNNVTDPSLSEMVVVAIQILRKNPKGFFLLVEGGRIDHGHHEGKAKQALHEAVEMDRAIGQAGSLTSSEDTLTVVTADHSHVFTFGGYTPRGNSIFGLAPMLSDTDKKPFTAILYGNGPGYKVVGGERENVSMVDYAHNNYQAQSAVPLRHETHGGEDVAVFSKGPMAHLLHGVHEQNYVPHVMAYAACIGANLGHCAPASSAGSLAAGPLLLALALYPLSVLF

Insulin-degrading enzyme = molecular target: T3, Insulin-degrading enzyme (Homo sapiens, UniProt P14735); assay: Dose Response: Fluorescence polarization-based cell-based high throughput dose response assay for inhibitors of insulin-degrading enzyme (IDE). [Related pubchem assays: 434962 (Primary screen (IDE inhibitors in singlicate)), 449730 (Counterscreen (Cytotoxicity in triplicate)), 435028 (Confirmation (IDE inhibitors in triplicate)), 434984 (Summary …; type: functional
T3 sequence (P14735 whole entry): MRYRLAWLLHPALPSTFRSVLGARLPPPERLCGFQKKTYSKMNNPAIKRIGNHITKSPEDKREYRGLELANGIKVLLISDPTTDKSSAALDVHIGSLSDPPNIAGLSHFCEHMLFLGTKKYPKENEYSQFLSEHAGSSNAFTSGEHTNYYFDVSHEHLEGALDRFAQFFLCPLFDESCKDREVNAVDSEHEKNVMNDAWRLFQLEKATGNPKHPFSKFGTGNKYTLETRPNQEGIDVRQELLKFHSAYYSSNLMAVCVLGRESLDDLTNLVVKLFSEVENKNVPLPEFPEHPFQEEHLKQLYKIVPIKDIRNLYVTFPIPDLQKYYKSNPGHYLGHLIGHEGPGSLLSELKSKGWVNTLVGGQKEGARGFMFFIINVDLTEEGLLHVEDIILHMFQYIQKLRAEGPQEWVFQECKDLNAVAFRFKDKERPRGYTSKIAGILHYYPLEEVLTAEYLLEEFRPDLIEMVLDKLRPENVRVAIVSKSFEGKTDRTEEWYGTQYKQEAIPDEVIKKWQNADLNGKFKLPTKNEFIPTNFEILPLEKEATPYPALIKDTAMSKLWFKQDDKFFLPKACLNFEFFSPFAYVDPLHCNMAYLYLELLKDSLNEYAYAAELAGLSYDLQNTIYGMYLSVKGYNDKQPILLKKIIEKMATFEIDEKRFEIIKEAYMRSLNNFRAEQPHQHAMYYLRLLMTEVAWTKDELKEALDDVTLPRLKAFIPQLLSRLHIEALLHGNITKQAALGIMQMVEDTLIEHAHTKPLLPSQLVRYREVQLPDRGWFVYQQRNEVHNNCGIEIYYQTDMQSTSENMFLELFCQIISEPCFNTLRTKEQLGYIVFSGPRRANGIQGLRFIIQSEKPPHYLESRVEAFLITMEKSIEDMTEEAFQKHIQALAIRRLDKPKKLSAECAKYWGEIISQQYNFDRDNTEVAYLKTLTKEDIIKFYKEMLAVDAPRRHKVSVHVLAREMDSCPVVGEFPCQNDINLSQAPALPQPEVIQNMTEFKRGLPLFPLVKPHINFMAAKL

[13] = Counterscreen for IDE inhibitors: Luminescence-based cell-based high throughput dose response assay to identify compounds that are cytotoxic to HEK cells. [Related pubchem assays: 434962 (Primary screen (IDE inhibitors in singlicate)), 449730 (Counterscreen (Cytotoxicity in triplicate)), 435028 (Confirmation (IDE inhibitors in triplicate)) …; type: functional; details: HEK293
[14] = enhancers of respiration in Yfh1-depleted yeast, dose response, Friedreich's ataxia, plus single-dose screen (AID 1465); type: functional;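 note: yeast depleted of Yfh1p frataxin homolog grown on glycerol needing respiration; WST-1 tetrazolium dye reduction as measure of cellular dehydrogenase metabolic activity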
[15] = molecular target: Mothers against decapentaplegic homolog 3 (Homo sapiens, UniProt P84022); assay: Smad3 binding inhibitors, lysate ELISA, dose response, cell lysate, secondary confirmation, chemiluminescent ELISA, HEK293 lysate (AID 1058); type: functional
Sequence of Mothers against decapentaplegic homolog 3 (P84022 whole entry): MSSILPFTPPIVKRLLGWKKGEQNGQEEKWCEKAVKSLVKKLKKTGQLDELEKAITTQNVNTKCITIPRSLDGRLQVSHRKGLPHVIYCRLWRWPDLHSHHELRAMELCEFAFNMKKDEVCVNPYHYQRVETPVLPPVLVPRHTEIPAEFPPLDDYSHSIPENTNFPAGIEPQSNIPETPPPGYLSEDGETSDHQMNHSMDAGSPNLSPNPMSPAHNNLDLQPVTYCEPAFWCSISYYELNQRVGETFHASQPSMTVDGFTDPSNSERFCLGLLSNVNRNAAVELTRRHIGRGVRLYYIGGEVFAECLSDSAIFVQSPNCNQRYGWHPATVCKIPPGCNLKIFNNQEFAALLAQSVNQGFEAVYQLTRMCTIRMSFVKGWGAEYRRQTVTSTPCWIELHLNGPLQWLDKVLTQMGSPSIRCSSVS

[16] = molecular target: Serine/threonine-protein phosphatase PP1-alpha catalytic subunit (Homo sapiens, UniProt P62136); assay: PP1 phosphatase inhibitors, dose response, biochemical, fluorescence (AID 2403);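 note: phosphatase turnover of OMFP into fluorescent 3-O-methylfluorescein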
Sequence of Serine/threonine-protein phosphatase PP1-alpha catalytic subunit (P62136 whole entry): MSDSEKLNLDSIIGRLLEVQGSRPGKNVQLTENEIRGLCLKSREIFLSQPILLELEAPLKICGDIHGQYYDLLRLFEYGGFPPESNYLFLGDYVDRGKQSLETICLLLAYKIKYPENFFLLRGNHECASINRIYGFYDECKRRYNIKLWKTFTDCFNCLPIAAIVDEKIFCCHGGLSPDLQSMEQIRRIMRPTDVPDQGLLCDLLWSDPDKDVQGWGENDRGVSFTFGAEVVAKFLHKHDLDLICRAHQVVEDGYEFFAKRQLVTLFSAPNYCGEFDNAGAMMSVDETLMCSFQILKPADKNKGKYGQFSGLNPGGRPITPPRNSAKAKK

[17] = molecular target: T4, Serine/threonine-protein phosphatase (Homo sapiens, UniProt Q9BPW0); assay: Counterscreen for inhibitors of PP1: fluorescence-based biochemical high throughput dose response assay to identify inhibitors of Protein Phosphatase 5 (PP5). [Related pubchem assays: 2034 (Summary (PP5 inhibitors)), 1987 (PP5 inhibitors in singlate), 2235 (PP1 inhibitors in singlate)]
T4 sequence (Q9BPW0 whole entry): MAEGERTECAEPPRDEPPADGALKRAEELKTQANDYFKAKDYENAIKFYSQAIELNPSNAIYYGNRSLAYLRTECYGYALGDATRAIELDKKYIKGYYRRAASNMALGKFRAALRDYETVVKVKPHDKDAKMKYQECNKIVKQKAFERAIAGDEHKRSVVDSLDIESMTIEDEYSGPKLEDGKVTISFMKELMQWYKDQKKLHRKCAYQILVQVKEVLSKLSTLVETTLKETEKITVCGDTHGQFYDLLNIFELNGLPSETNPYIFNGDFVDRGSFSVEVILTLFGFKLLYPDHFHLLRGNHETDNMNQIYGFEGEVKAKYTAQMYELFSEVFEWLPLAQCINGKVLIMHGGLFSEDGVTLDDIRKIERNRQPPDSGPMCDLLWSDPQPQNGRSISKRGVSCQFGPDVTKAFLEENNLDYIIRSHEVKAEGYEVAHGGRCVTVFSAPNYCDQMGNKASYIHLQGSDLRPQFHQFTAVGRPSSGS

[18] = molecular target: T5, Heat shock factor protein 1 (Mus musculus, UniProt P38532); assay: HSF1 potentiators in luciferase reporter cells, confirmation, cell-based, NIH3T3, luminescence, dose retest (AID 435004); type: functional;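 note: stress induced by proteasome inhibitor MG132 added 30 min after compound; luciferase reporter driven by HSF1 response element in NIH3T3 cells; actives raise luminescence as potentiators of the MG132 stress response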
T5 sequence (P38532 whole entry): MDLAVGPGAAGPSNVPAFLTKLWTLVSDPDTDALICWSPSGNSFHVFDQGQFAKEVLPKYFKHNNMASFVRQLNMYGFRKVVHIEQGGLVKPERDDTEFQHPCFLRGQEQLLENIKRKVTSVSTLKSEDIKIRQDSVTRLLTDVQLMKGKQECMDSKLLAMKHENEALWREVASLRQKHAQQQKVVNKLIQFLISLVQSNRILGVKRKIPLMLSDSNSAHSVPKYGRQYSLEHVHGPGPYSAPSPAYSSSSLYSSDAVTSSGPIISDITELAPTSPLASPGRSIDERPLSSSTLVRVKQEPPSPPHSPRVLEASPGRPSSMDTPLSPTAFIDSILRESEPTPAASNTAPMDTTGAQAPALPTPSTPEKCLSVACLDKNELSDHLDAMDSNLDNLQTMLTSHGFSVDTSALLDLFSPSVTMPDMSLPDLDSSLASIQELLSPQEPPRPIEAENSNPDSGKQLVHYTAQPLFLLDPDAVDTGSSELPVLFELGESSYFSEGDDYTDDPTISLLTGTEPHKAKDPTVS

Streptococcus = assay: Group A Streptococcus viability loss, dose response, counter-screen for streptokinase expression inhibitor project, luminescence, BacTiterGlo (AID 1915); type: functional, organism-based;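 note: potency for reduction of bacterial viability or growth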
[19] = molecular target: Potassium voltage-gated channel subfamily KQT member 2 (Rattus norvegicus, UniProt O88943, W236L); assay: KCNQ2 channel potentiators, dose response, mechanism study for KCNQ2 potentiator project, cell-based, automated electrophysiology (AID 2603); type: functional
Sequence of Potassium voltage-gated channel subfamily KQT member 2 (O88943 whole entry W236L): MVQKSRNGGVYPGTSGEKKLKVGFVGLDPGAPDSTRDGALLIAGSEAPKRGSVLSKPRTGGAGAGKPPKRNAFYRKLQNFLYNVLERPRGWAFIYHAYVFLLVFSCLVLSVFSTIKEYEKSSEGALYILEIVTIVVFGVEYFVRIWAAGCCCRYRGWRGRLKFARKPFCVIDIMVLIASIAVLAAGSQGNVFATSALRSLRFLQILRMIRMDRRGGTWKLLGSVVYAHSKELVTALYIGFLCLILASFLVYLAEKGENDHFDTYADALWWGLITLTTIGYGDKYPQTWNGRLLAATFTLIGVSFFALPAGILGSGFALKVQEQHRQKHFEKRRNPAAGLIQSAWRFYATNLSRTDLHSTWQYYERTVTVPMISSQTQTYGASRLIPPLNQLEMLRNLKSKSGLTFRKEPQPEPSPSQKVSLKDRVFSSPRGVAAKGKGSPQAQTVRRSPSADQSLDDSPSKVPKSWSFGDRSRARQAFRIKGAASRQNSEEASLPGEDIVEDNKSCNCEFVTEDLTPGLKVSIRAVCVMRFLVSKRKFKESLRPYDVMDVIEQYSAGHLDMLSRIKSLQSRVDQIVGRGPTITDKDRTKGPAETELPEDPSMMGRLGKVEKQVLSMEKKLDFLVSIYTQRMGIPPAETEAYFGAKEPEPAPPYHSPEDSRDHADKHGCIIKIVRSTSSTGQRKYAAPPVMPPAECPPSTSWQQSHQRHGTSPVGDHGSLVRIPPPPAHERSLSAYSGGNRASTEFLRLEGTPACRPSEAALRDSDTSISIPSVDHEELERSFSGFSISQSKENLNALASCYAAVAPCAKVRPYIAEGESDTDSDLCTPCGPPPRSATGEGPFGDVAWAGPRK

[20] = test system: Streptococcus sp. 'group A'; assay: growth inhibition of control SK(-) GAS strain, dose response, counter-screen for streptokinase expression inhibitor project, luminescence, kanamycin, BacTiterGlo, confirmation (AID 1900); type: functional, organism-based
[21] = M. tuberculosis H37Rv growth inhibitors, H37Rv strain (AID 1626); type: functional
[22] = HEp-2 cell cytotoxicity, dose response, cytotoxicity control for RSV inhibitor project, HTS (AID 2410); type: functional; details: human respiratory syncytial virus

Sequence of Sphingosine 1-phosphate receptor 3 (Q99500 whole entry): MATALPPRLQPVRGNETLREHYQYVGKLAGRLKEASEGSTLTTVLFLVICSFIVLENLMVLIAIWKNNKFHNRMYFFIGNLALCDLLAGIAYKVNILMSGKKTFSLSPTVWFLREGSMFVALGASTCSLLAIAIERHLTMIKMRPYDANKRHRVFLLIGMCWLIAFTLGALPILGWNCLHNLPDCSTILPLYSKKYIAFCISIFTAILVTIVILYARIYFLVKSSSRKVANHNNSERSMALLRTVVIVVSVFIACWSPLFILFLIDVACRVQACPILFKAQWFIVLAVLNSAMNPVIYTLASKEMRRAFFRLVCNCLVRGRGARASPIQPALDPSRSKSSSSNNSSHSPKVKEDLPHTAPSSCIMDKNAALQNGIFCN

O=C(Nc1ccc(Br)cc1)C(c1ccccc1)c1ccccc1
IC50 [1]: 1.33 µM (active) | IC50 [2]: > 50 µM (not active)

CCN(CC)c1ccc(NC(=O)CSc2nc(C)cc(O)n2)cc1
IC50 (Leucine aminopeptidase): 3.06 µM (active) | IC50 (Aspartyl aminopeptidase): > 73.5 µM (not active) | IC50 (Procathepsin L): > 59.6 µM (not active)

Cc1cc(C(=O)Cn2cc(C(F)(F)F)ccc2=O)c(C)n1Cc1ccccc1
EC50 [3]: 0.723 µM (active)

Oc1c(C(Nc2nccs2)c2ccc(C(F)(F)F)cc2)ccc2cccnc12 (stereo not given)
EC50 [4]: 8.36 µM (active) | EC50 [5]: > 12 µM (not active) | EC50 [6]: 11.2 µM (active) | AC50 [7]: 3.69 µM (active) | EC50 [8]: 1.01 µM (active) | EC50 [9]: > 160 µM (inactive) | EC50 [10]: > 180 µM (inactive) | EC50 (cells): 1.04 µM (active) | EC50 [11]: < 0.1 µM (active)

Cc1ccc(C(O)(C(=O)NNC(=O)CN2CCN(C)CC2)c2ccc(C)cc2)cc1
EC50 [12]: 64.1 µM (not active)

O=C1NC(=O)N(c2ccc3c(c2)OCO3)C(=O)/C1=C/c1ccc(N2CCCC2)o1
IC50 (Insulin-degrading enzyme): 20.7 µM (not active) | IC50 [13]: > 55.7 µM (not active) | EC50 [14]: > 100 µM (active)

COc1cc(C(c2cc3c(cc2O)OCO3)N2CCCCC2)cc(OC)c1OC (stereo not given)
IC50 [15]: 12.5 µM (not active)

O=C(O)c1cc(-c2ccc(Cl)c(Cl)c2)n(-c2ccccc2)n1
IC50 [16]: 5.82 µM (active) | IC50 [17]: > 67 µM (not active) | EC50 [18]: > 260 µM (inactive)

O=C(Cc1ccccc1)N/N=C/c1cc(Br)cc(Cl)c1O
EC50 [6]: > 150 µM (inactive) | EC50 (Streptococcus): 1.73 µM (active) | EC50 [19]: 7.13 µM (active) | EC50 [8]: 4.68 µM (active) | EC50 [20]: 1.05 µM (active)

Cc1cc(-c2ccc(/C=N/n3cnnc3)o2)ccc1Cl
IC50 [21]: > 100 µM (active) | CC50 [22]: > 50 µM (active)
